Source: PubChem BioAssay AID488890 (Southern Research Specialized Biocontainment Screening …, 2010)
Results filed as inconclusive are left out. Activity calls are given as the source filed them. How the calls were made is not given here.

The compounds below were run on Mycobacterium tuberculosis non-replicating, growth inhibition (assay: growth inhibition of non-replicating M. tuberculosis (AID 488890)).

Row | Compound | IC50
1 | O=c1cc(-c2ccccc2Cl)oc2c([N+](=O)[O-])c(O)cc(O)c12 | 5.05 µM
2 | COc1ccc(-c2nnc(NC(=O)C3=COCCO3)o2)cc1 | 27.1 µM (inactive)
3 | O=S(=O)(CCN1CCN(c2ccccn2)CC1)c1ccc(Cl)cc1Cl | 8.61 µM
4 | COc1ccc(OC(=O)C(C)N2C(=O)c3ccccc3C2=O)cc1 (stereo unspecified) | 12.3 µM (inactive)
5 | O=C(OCc1ccc(Cl)c(Cl)c1)c1ccccn1 | 2.27 µM
6 | Cc1ccc(C2=N/C(=C\c3cccnc3)C(=O)O2)cc1 | 6.58 µM
7 | O=C(Nc1nccs1)c1ccc(Br)cc1 | 39.5 µM (inactive)
8 | O=C(NNc1c(F)c(F)cc(F)c1F)c1cc2ccccc2oc1=O | 27.5 µM (inactive)
9 | Cc1nnc(NC(=O)c2ccc3ccccc3c2)o1 | 1.55 µM
10 | O=C(Nc1cccc(Cl)c1)Nc1nnc(-c2ccncc2)s1 | 2.69 µM
11 | O=C(CCC1CCCCC1)NCc1cccs1 | 0.27 µM
12 | COc1ccc(C(=O)OCn2nnc3ccccc3c2=O)cc1[N+](=O)[O-] | 15.8 µM (inactive)
13 | CCCn1c(NC(=O)c2ccc([N+](=O)[O-])o2)nc2ccccc21 | 7.64 µM
14 | CCOc1ccc(-c2nnc(NC(=O)CCCOc3cccc(C)c3)o2)cc1 | 15 µM (inactive)
15 | CCc1ccc(NC(=O)C(=O)NNC(=O)COc2cccc(OC)c2)cc1 | 2.49 µM
16 | CC(C)OC(=O)c1c2c(n3ccccc13)C(=O)c1ccccc1C2=O | 9.5 µM
17 | C=CCNCC(=O)N1N=C(c2ccc3ccccc3c2)CC1c1ccc(OC)cc1 (stereo unspecified) | 20.6 µM (inactive)
18 | CCOC(=O)CN(C#N)c1nc(N(C)C)nc(N(C)C)n1 | 8.42 µM
19 | Cc1cc(Cl)ccc1OCC(=O)NNC(=O)c1cnccn1 | 6.05 µM
20 | CN1CCN(/N=C/c2ccc(-c3ccc([N+](=O)[O-])cc3Cl)o2)CC1 | 26.9 µM (inactive)
21 | Cc1c(CN2CCC(CO)(CCOc3ccccc3)CC2)[nH]c2c(Cl)cccc12 | 8.93 µM
22 | C[C@H](NC(=O)c1[nH]cnc1C(=O)Nc1ccccc1)C(=O)OC(C)(C)C | 18.9 µM (inactive)
23 | COc1ccc(C(C)NC(=O)CCc2ccccc2)cc1 (stereo unspecified) | 34.9 µM (inactive)
24 | CCC(C)n1nnc2c(=O)oc3ccccc3c21 (stereo unspecified) | 5.63 µM

Row | Compound | IC50
25 | COC(=O)c1ccc2c(c1O)C(=O)c1ccccc1C2=O | 1.44 µM
26 | CCOC(=O)C(C)Oc1cc(Cl)c(C=O)cc1OC (stereo unspecified) | 8.06 µM
27 | CCOC(=O)c1ccc(-n2c(CCC(=O)O)ccc2-c2cccs2)cc1 | 36.2 µM (inactive)
28 | Cc1cccc(OCCN2CSC(=S)N(C)C2)c1 | 16.4 µM (inactive)
29 | CCOC(=O)c1c(C)nc2cc(C)ccn12 | 5.9 µM
30 | CCCn1nnnc1NC(=O)c1ccc2ccccc2c1 | 3.46 µM
31 | O=C(OCC(=O)c1c[nH]c2ccccc12)c1ccc([N+](=O)[O-])s1 | 0.79 µM
32 | O=C(COC(=O)c1cc2ccccc2oc1=O)Nc1ccc(F)cc1F | 10.3 µM (inactive)
33 | CCOc1ccc(C(=O)Nc2ccc(N3CCN(C)CC3)cc2)cc1Br | 30.5 µM (inactive)
34 | CCCCOC(=O)c1ccc(NC(=O)c2nn(C)cc2Br)cc1 | 20.4 µM (inactive)
35 | O=C(Nc1nnc(C2=COCCO2)o1)c1cccc(C(F)(F)F)c1 | 17.7 µM (inactive)
36 | COc1ccc2[nH]c3c(C)c4ccncc4c(C)c3c2c1 | 0.59 µM
37 | COc1ccc(C(=O)Nc2nnc(-c3ccccc3)o2)cc1OC | 10.4 µM (inactive)
38 | O=C(CCNc1ccc(Cl)cc1)c1cccs1 | 3.79 µM
39 | Clc1cccc(CNCCNCc2cccc(Cl)c2)c1 | 12.1 µM (inactive)
40 | Cc1cc(CC(C)C)n(-c2nc3ccccc3c(=O)n2OCC(N)=O)n1 | 16.1 µM (inactive)
41 | CCS(=O)(=O)c1c([N+](=O)[O-])ncn1C | 19.5 µM (inactive)
42 | Cc1ccccc1Cn1cc(NC(=O)c2noc(C(C)C)c2[N+](=O)[O-])cn1 | 7.58 µM
43 | CC(C)CN1C(=O)/C(=C(/C#N)C(=O)NC2CCCCC2)c2ccccc21 | 25.9 µM (inactive)
44 | CC(CN1CCOCC1)OC(=O)c1ccc2c(c1)OCCO2 (stereo unspecified) | 33.5 µM (inactive)
45 | COc1ccccc1/C=N\Nc1cc(C)nc(-n2nc(C)cc2C)n1 | 1.77 µM
46 | Cc1c(-c2ccc(Br)cc2)nc2ccccn12 | 18.9 µM (inactive)
47 | CCOC(=O)c1cc(COc2cc(Cl)cc(Cl)c2)on1 | 0.59 µM
48 | CCCCOc1ccc(CSCCN)cc1Cl | 27.8 µM (inactive)

Row | Compound | IC50
49 | Cc1ccc(NC(=O)CN(C)C2CCCCC2)cc1Br | 0.35 µM
50 | CC(C)(C)Nc1nc(NC(C)(C)C)nc(-n2ccnc2)n1 | 23 µM (inactive)
51 | N[C@@H](Cc1ccccc1)c1nnc(SC/C=C/c2ccccc2)o1 | 3.49 µM
52 | COc1ccc(NC(=O)C2COc3ccccc3O2)cc1 (stereo unspecified) | 4.43 µM
53 | CCOC(=O)Cc1nc2cc(Cl)ccc2o1 | 32.3 µM (inactive)
54 | Cc1cccc(NC(=O)CCSc2nnc(Cc3ccccc3)o2)c1 | 4.09 µM
55 | O=C(CC1CC2CCC1C2)NCc1cccs1 (stereo unspecified) | 1.69 µM
56 | CCCCCCCNC(=O)C1(CC2CC(c3cccc(Br)c3)=NO2)CCNCC1 (stereo unspecified) | 13.7 µM (inactive)
57 | Cc1csc(NC(=O)c2cc([N+](=O)[O-])cc([N+](=O)[O-])c2)n1 | 7.76 µM
58 | CCc1cccc(OCCCn2ccnc2)c1 | 18.7 µM (inactive)
59 | C=CCc1ccc(OCC(O)CN2CCN(Cc3ccc(Cl)cc3)CC2)c(OC)c1 (stereo unspecified) | 15.7 µM (inactive)
60 | Cc1ccc(C(=O)c2cncc(Br)c2)cc1 | 9.3 µM
61 | CCOC(=O)CN1NC2(CCCC(C)C2)NC1=S (stereo unspecified) | 11.9 µM (inactive)
62 | O=C(NCCCN1CCCC1)c1cc2c(Cl)nc3ccccc3c2s1 | 10.5 µM (inactive)
63 | COc1ccc(N=Cc2nc(-c3ccccc3)oc2OC(C)=O)cc1 | 17.4 µM (inactive)
64 | COc1cc(/C=N/Nc2ccc(Cl)c(C(=O)O)c2)ccc1OC(=O)c1ccco1 | 11.9 µM (inactive)
65 | Nc1nnc(Sc2ncccc2[N+](=O)[O-])s1 | 17 µM (inactive)
66 | Cc1ccc(NC(=O)CCSc2nnc(-c3ccco3)o2)cc1 | 8.38 µM
67 | CCc1ccc2c(c1)Sc1ccccc1CC2N1CCN(C)CC1 (stereo unspecified) | 13.6 µM (inactive)
68 | CCc1nonc1NC(=O)COc1ccc(Cl)c(C)c1 | 9.9 µM
69 | O=C(NNc1ccc([N+](=O)[O-])cc1)C1CC1c1ccccc1 (stereo unspecified) | 8.96 µM
70 | COC(=O)C(O)(c1ccc(NC(=S)NC(=O)c2ccccc2)cc1)C(F)(F)F (stereo unspecified) | 14.8 µM (inactive)
71 | CCc1ccc(OCC(=O)Nc2ccncc2)c(Br)c1 | 6.25 µM
